Experimental data: ChEMBL document CHEMBL2016545, “Discovery of S-777469: an orally available CB2 agonist as an antipruritic agent” (Bioorg Med Chem Lett, 2012)

Experiments:
[1] = target: T1, Cannabinoid receptor 2 (Homo sapiens, UniProt P34972); assay: Agonist activity at human CB2 receptor expressed in CHO cells assessed as inhibition of forskolin-induced cAMP release after 45 mins; format: functional, cell-based
[2] = target: T1, Cannabinoid receptor 2; assay: Displacement of [3H]-CP55940 from human recombinant CB2 receptor after 60 mins
[3] = target: T2, Cannabinoid receptor 1 (Homo sapiens, UniProt P21554); assay: Displacement of [3H]-CP55940 from human recombinant CB1 receptor after 60 mins
[4] = target: T2, Cannabinoid receptor 1; assay: Agonist activity at human CB1 receptor expressed in CHO cells assessed as inhibition of forskolin-induced cAMP release after 25 mins; format: functional, cell-based
[5] = system: Mus musculus; assay: Neurotoxicity in ICR mouse assessed as psychoactivity at 0.1 to 1 mg/kg, iv; format: toxicity, organism-based; set-up: dose 0.1-1 mg/kg, route intravenous; conditions: in vivo
[6] = species on record: Mus musculus; assay: animal or person; conditions: ICR, po, 0.5 h, read-out: INH
[7] = Volume of distribution at steady state in cynomolgus monkey at 3 mg/kg, iv; format: ADME, organism-based, Macaca fascicularis; set-up: dose 3 mg/kg, route intravenous; conditions: in vivo, read-out: Vdss
[8] = system: Mus musculus; assay: Antipruritic activity in ICR mouse assessed as inhibition of compound 48/80-induced scratching at 1 mg/kg, po measured after 30 mins; format: functional; conditions: 0.5 h
[9] = Clearance in cynomolgus monkey at 3 mg/kg, iv; format: ADME, organism-based, Macaca fascicularis; set-up: dose 3 mg/kg, route intravenous; conditions: in vivo
[10] = Half life in cynomolgus monkey at 10 mg/kg, po; format: ADME, organism-based, Macaca fascicularis; set-up: dose 10 mg/kg, route oral; conditions: in vivo
[11] = Oral bioavailability in beagle dog at 10 mg/kg; format: ADME, organism-based, Canis lupus familiaris; conditions: in vivo
[12] = Oral bioavailability in rat at 10 mg/kg; format: ADME, organism-based; conditions: in vivo
[13] = system: Mus musculus; assay: Antipruritic activity in ICR mouse assessed as inhibition of compound 48/80-induced scratching at 10 mg/kg, po measured after 30 mins; format: functional; conditions: 0.5 h
[14] = Volume of distribution at steady state in rat at 3 mg/kg, iv; format: ADME, organism-based; set-up: dose 3 mg/kg, route intravenous; conditions: in vivo, read-out: Vdss
[15] = system: Mus musculus; assay: Antipruritic activity in ICR mouse assessed as inhibition of compound 48/80-induced scratching at 3 mg/kg, po measured after 30 mins; format: functional; conditions: 0.5 h
[16] = Clearance in beagle dog at 3 mg/kg, iv; format: ADME, organism-based, Canis lupus familiaris; set-up: dose 3 mg/kg, route intravenous; conditions: in vivo
[17] = Half life in rat at 10 mg/kg, po; format: ADME, organism-based; set-up: dose 10 mg/kg, route oral; conditions: in vivo
[18] = Volume of distribution at steady state in beagle dog at 3 mg/kg, iv; format: ADME, organism-based, Canis lupus familiaris; set-up: dose 3 mg/kg, route intravenous; conditions: in vivo, read-out: Vdss
[19] = Half life in beagle dog at 10 mg/kg, po; format: ADME, organism-based, Canis lupus familiaris; set-up: dose 10 mg/kg, route oral; conditions: in vivo
[20] = Clearance in rat at 3 mg/kg, iv; format: ADME, organism-based; set-up: dose 3 mg/kg, route intravenous; conditions: in vivo
[21] = Oral bioavailability in cynomolgus monkey at 10 mg/kg; format: ADME, organism-based, Macaca fascicularis; conditions: in vivo

T2 sequence (P21554 whole entry): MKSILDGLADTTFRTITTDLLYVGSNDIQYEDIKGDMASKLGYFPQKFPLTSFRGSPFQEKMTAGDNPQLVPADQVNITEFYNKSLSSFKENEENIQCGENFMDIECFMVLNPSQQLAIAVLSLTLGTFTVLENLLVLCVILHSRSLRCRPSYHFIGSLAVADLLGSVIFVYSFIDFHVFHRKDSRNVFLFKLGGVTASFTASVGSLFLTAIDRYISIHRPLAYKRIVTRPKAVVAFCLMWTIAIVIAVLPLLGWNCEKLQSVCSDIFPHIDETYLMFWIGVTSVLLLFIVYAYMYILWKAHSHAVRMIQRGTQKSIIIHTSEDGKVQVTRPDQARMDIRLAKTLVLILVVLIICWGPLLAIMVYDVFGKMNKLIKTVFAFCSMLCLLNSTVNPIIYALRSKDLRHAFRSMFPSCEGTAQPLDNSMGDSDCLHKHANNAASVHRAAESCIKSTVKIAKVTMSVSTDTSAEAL
T1 sequence (P34972 whole entry): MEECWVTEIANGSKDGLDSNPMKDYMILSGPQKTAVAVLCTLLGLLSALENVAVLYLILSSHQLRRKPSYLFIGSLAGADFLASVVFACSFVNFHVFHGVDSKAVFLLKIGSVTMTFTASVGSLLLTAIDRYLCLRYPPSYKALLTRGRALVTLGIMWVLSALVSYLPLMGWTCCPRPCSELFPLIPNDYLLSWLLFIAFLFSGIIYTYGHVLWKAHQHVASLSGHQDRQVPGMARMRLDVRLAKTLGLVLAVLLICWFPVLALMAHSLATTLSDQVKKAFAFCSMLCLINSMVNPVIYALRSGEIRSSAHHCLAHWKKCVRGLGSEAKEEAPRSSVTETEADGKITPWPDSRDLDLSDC

| Structure (SMILES) | IC50 [1] [nM] | Ki [2] [nM] | Ki [3] [nM] | IC50 [4] [nM] | also measured |
| --- | --- | --- | --- | --- | --- |
| O=C(NC1(C(=O)O)CCCCCCC1)c1cc2c(n(CC3CCCCC3)c1=O)CCCCCC2 | 1 |  |  |  |  |
| O=C(O)CNC(=O)c1cc2c(n(CC3CCCCC3)c1=O)CCCCCC2 |  | 177 | 1060 |  |  |
| O=C(NC1(C(=O)O)CCCC1)c1cc2c(n(CC3CCCCC3)c1=O)CCCCCC2 | 14 | 56 | 258 | 113 |  |
| O=C(NC1(C(=O)O)CCCCC1)c1cc2c(n(CC3CCCCC3)c1=O)CCCCCC2 | 7 | 6.7 | 181 | 76 | Activity [5]: Non-toxic |
| CCCCn1c2c(cc(C(=O)NC3(C(=O)O)CCCCC3)c1=O)CCCCCC2 | 7 | 56 | > 5000 | > 2000 |  |
| O=C(NC1(C(=O)O)CCCCC1)c1cc2c(n(CC3CCCO3)c1=O)CCCCCC2 (stereo not given) |  | 247 | > 5000 |  |  |
| CCN1CCCC1Cn1c2c(cc(C(=O)NC3(C(=O)O)CCCCC3)c1=O)CCCCCC2 (stereo not given) |  | 2110 |  |  |  |
| O=C(NC1(C(=O)O)CCCCC1)c1cc2c(n(Cc3ccc(F)cc3)c1=O)CCCCCC2 | 9 | 16 | 266 | 514 |  |
| N#Cc1ccc(Cn2c3c(cc(C(=O)NC4(C(=O)O)CCCCC4)c2=O)CCCCCC3)cc1 |  | 144 | 3950 |  |  |
| CCCCn1c(CC)c(C)cc(C(=O)NC2(C(=O)O)CCCCC2)c1=O |  | 348 |  |  |  |
| CCCCn1c(CCC)c(Br)cc(C(=O)NC2(C(=O)O)CCCCC2)c1=O |  | 382 | > 5000 |  |  |
| CCCc1c(CC)cc(C(=O)NC2(C(=O)O)CCCCC2)c(=O)n1Cc1ccc(F)cc1 |  | 263 | > 5000 |  |  |
| COCCn1c2c(cc(C(=O)NC3(C(=O)O)CCCCC3)c1=O)CCCCCC2 |  | 294 | > 5000 |  |  |
| CC(C)(C(=O)O)c1ccc(C(O)CCCN2CCC(C(O)(c3ccccc3)c3ccccc3)CC2)cc1 (stereo not given) [FEXOFENADINE] |  |  |  |  | inhibition in vivo at 30 mg/kg [6]: 39% |
| CCc1c(C)cc(C(=O)NC2(C(=O)O)CCCCC2)c(=O)n1Cc1ccc(F)cc1 [S-777469] |  |  | 4070 | > 2000 | Vd [7]: 0.87 L/kg; inhibition in vivo at 1 mg/kg [8]: 46%; clearance [9]: 13.6 mL/min/kg; half-life [10]: 7.43 h; bioavailability [11]: 18.7%; bioavailability [12]: 37.9%; inhibition in vivo at 10 mg/kg [13]: 59%; Vd [14]: 1.9 L/kg; inhibition in vivo at 3 mg/kg [15]: 48%; clearance [16]: 6 mL/min/kg; half-life [17]: 6.2 h; Vd [18]: 1.23 L/kg; half-life [19]: 12.8 h; clearance [20]: 11.3 mL/min/kg; bioavailability [21]: 9.01% |
